# Source: patent EP4813992A1, “POLYARYL DERIVATIVE AND USE THEREOF” (Hangzhou HealZen Therapeutics Co., Ltd., priority 2023, dated 2025)
# Target: HPK1 kinase (Homo sapiens, UniProt Q92918)
# Experiment: Lantha screen assay, inhibitory effect on HPK1 kinase
# Format: biochemical
# Settings: initial compound concentration 1 µM
# Experimental: The Lantha screen assay is used to evaluate the inhibitory effect of the compounds on HPK1 kinase. • a) Kinase buffer: 50 mM HEPES (pH 7.5), 10 mM MgCl2, 4 mM DTT, 0.01% Tween-20, 0.01% BSA. • b) Compound Preparation: The compound is diluted with DMSO, and the initial detection concentration of the compound is 1 µM and is diluted to the corresponding concentration. • c) Kinase response and termination: A kinase solution is prepared by adding kinase buffer, the kinase solution and the compound are added to the test plate to be incubated at room temperature for 10 minutes. Fluorescein-PKC and ATP are added to the kinase buffer to form a substrate solution, and 5 µl of the substrate solution is added to the test plate to start the reaction to be incubated at room temperature for 90 minutes; then, 10 µl of a mixture of antibody and EDTA is added to terminate the reaction to be incubated at room temperature for 60 minutes. • d) The date is read by Envision instrument to plot a curve with the Log concentration of the inhibitor as the X-axis and the inhibition rate as the Y-axis, and then the formula Y=Bottom + (Top-Bottom)/(1+(IC50/X)^HillSlope) is used to obtain IC50. Table 1 Inhibitory activity the compounds of the invention on HPK1 kinase
# HPK1 kinase, sequence (Q92918 whole entry): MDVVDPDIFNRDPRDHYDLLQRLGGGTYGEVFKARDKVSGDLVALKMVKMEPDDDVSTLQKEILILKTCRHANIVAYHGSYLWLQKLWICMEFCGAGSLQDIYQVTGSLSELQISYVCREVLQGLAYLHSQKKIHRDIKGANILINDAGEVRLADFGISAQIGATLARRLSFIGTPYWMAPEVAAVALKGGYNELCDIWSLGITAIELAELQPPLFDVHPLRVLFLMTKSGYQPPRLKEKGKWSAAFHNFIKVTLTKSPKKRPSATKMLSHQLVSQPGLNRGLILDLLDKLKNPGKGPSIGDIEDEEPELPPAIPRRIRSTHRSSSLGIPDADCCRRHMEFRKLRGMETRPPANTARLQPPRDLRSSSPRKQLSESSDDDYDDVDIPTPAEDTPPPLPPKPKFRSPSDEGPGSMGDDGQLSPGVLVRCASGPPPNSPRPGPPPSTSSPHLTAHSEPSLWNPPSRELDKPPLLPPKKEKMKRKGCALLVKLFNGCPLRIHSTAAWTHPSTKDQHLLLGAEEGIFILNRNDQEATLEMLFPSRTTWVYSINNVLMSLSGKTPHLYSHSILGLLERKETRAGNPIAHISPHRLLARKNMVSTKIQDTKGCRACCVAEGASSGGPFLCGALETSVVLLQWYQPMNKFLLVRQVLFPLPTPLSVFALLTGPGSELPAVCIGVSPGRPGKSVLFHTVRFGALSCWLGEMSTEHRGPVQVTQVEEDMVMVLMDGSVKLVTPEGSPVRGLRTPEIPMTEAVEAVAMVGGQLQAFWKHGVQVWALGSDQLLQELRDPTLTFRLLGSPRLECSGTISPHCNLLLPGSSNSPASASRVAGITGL
row,SMILES,IC50 [µM]
1,COc1ccc(C(=O)N2CC(CN3CC=C(c4c(C)cc(-c5cnc6[nH]cc(-c7ccc(C(=O)N(C)C)cc7)c6n5)cc4C)CC3)C2)cc1N1CCC(=O)NC1=O [compound 001],< 0.01
2,Cc1cc(-c2cnc3[nH]cc(-c4ccc(C(=O)N(C)C)cc4)c3n2)cc(C)c1C1=CCN(C2CN(c3ccc(C(=O)NC4CCC(=O)NC4=O)cc3)C2)CC1 (stereo not drawn) [compound 005],< 0.01
3,Cc1cc(-c2cnc3[nH]cc(-c4ccc(C(=O)N(C)C)cc4)c3n2)cc(C)c1C1=CCN(C2CN(c3cc(F)c(C4CCC(=O)NC4=O)c(F)c3)C2)CC1 (stereo not drawn) [compound 007],< 0.01
4,Cc1cc(-c2cnc3[nH]cc(-c4ccc(C(=O)N(C)C)cc4)c3n2)cc(C)c1C1=CCN(CC2CN(c3ccc(NC4CCC(=O)NC4=O)c(F)c3)C2)CC1 (stereo not drawn) [compound 019],< 0.01
5,Cc1cc(-c2cnc3[nH]cc(-c4ccc(C(=O)N(C)C)cc4)c3n2)cc(C)c1C1=CCN(C2CN(C(=O)c3ccc(NC4CCC(=O)NC4=O)cc3)C2)CC1 (stereo not drawn) [compound 020],< 0.01
6,Cc1cc(-c2cnc3[nH]cc(-c4ccc(C(=O)N(C)C)cc4)c3n2)cc(C)c1C1=CCN(CC2CN(c3ccc(NC4CCC(=O)NC4=O)cn3)C2)CC1 (stereo not drawn) [compound 022],< 0.01
7,Cc1cc(-c2cnc3[nH]cc(-c4ccc(C(=O)N(C)C)cc4)c3n2)cc(C)c1C1=CCN(CC2CN(c3cccc(C4CCC(=O)NC4=O)c3)C2)CC1 (stereo not drawn) [compound 025],< 0.01
8,Cc1cc(-c2cnc3[nH]cc(-c4ccc(C(=O)N(C)C)cc4)c3n2)cc(C)c1C1=CCN(CC#Cc2ccc(C(=O)NC3CCC(=O)NC3=O)cc2)CC1 (stereo not drawn) [compound 026],< 0.01
9,Cc1cc(-c2cnc3[nH]cc(-c4ccc(C(=O)N(C)C)cc4)c3n2)cc(C)c1C1=CCN(CC2CN(c3cccc(N4CCC(=O)NC4=O)c3C)C2)CC1 [compound 027],< 0.01
10,Cc1cc(-c2cnc3[nH]cc(-c4ccc(C(=O)N(C)C)c(F)c4)c3n2)cc(C)c1C1=CCN(CC2CN(c3ccc(C(=O)NC4CCC(=O)NC4=O)cc3)C2)CC1 (stereo not drawn) [compound 029],< 0.01
11,Cc1cc(-c2cnc3[nH]cc(-c4ccc(C(=O)N(C)C)nc4)c3n2)cc(C)c1C1=CCN(CC2CN(c3ccc(C(=O)NC4CCC(=O)NC4=O)cc3)C2)CC1 (stereo not drawn) [compound 030],< 0.01
12,Cc1cc(-c2cnc3[nH]cc(-c4ccc(C(=O)N(C)C)cn4)c3n2)cc(C)c1C1=CCN(CC2CN(c3ccc(C(=O)NC4CCC(=O)NC4=O)cc3)C2)CC1 (stereo not drawn) [compound 031],< 0.01
13,Cc1cc(-c2cnc3[nH]cc(-c4ccc(C(=O)N(C)C[C@H](C)O)cc4)c3n2)cc(C)c1C1=CCN(CC2CN(c3ccc(C(=O)NC4CCC(=O)NC4=O)cc3)C2)CC1 (stereo partly drawn) [compound 032],< 0.01
14,Cc1cc(-c2cnc3[nH]cc(-c4ccc(C(=O)N(C)C)cc4)c3n2)cc(C)c1C1=CCN(CCCC(=O)c2ccc(C3CCC(=O)NC3=O)cc2)CC1 (stereo not drawn) [compound 033],< 0.01
15,Cc1cc(C2CC(CN3CC=C(c4c(C)cc(-c5cnc6[nH]cc(-c7ccc(C(=O)N(C)C)cc7)c6n5)cc4C)CC3)C2)ccc1N1CCC(=O)NC1=O (stereo not drawn) [compound 039],< 0.01
16,Cc1cc(NCC2(CN3CC=C(c4c(C)cc(-c5cnc6[nH]cc(-c7ccc(C(=O)N(C)C)cc7)c6n5)cc4C)CC3)CCC2)ccc1N1CCC(=O)NC1=O [compound 041],< 0.01
17,Cc1cc(-c2cnc3[nH]cc(-c4ccc(C(=O)N(C)C)cc4)c3n2)cc(C)c1C1=CCN(CC2CN(c3ccc(NC4CCC(=O)NC4=O)cc3)C2)CC1 (stereo not drawn) [compound 043],< 0.01
18,COc1ccc(C(=O)C2CCC(N3CC=C(c4c(C)cc(-c5cnc6[nH]cc(-c7ccc(C(=O)N(C)C)cc7)c6n5)cc4C)CC3)C2)cc1N1CCC(=O)NC1=O (stereo not drawn) [compound 044],< 0.01
19,Cc1cc(-c2cnc3[nH]cc(-c4ccc(C(=O)N(C)C)cc4)c3n2)cc(C)c1C1=CCN(C2CC3(CCN(c4ccc(C5CCC(=O)NC5=O)c(F)c4)C3)C2)CC1 (stereo not drawn) [compound 045],< 0.01
20,Cc1cc(-c2cnc3[nH]cc(-c4ccc(C(=O)N(C)C)cc4)c3n2)cc(C)c1C1=CCN(CC#Cc2cccc3c2n(C)c(=O)n3C2CCC(=O)NC2=O)CC1 (stereo not drawn) [compound 046],< 0.01
21,Cc1cc(-c2cnc3[nH]cc(-c4ccc(C(=O)N(C)C)cc4)c3n2)cc(C)c1C1=CCN(C(=O)CCc2cc(F)c(N3CCC(=O)NC3=O)c(F)c2)CC1 [compound 047],< 0.01
22,Cc1cc(-c2cnc3[nH]cc(-c4ccc(C(=O)N(C)C)cc4)c3n2)cc(C)c1C1=CCN(C2CN(c3ccc(C4CCC(=O)NC4=O)cc3)C2)CC1 (stereo not drawn) [compound 048],< 0.01
23,Cc1cc(-c2c[nH]c3ncc(-c4cc(C)c(C5=CCN(CC6CN(c7ccc(C(=O)NC8CCC(=O)NC8=O)cc7)C6)CC5)c(C)c4)nc23)ccc1C(=O)N1CC2(COC2)C1 (stereo not drawn) [compound 050],< 0.01

# Second part, the molecule after the results:
row,IC50 [µM],SMILES
1,< 0.01,Cc1cc(-c2cnc3[nH]cc(-c4ccc(C(=O)N(C)C)cc4)c3n2)cc(C)c1C1=CCN(CC2CN(c3cc(F)c(C4CCC(=O)NC4=O)c(F)c3)C2)CC1 (stereo not drawn) [compound 002]
2,< 0.01,COc1cc(N2CC(CN3CC=C(c4c(C)cc(-c5cnc6[nH]cc(-c7ccc(C(=O)N(C)C)cc7)c6n5)cc4C)CC3)C2)ccc1N1CCC(=O)NC1=O [compound 004]
3,< 0.01,Cc1cc(-c2cnc3[nH]cc(-c4ccc(C(=O)N(C)C)cc4)c3n2)cc(C)c1C1=CCN(CC(=O)Cc2ccc(C3CCC(=O)NC3=O)c(F)c2)CC1 (stereo not drawn) [compound 006]
4,< 0.01,COc1cc(C(=O)CCN2CC=C(c3c(C)cc(-c4cnc5[nH]cc(-c6ccc(C(=O)N(C)C)cc6)c5n4)cc3C)CC2)ccc1C1CCC(=O)NC1=O (stereo not drawn) [compound 009]
5,< 0.01,Cc1cc(C(=O)N2CC(N3CC=C(c4c(C)cc(-c5cnc6[nH]cc(-c7ccc(C(=O)N(C)C)cc7)c6n5)cc4C)CC3)C2)ccc1C1CCC(=O)NC1=O (stereo not drawn) [compound 010]
6,< 0.01,Cc1cc(N2CCC3(CCC(N4CC=C(c5c(C)cc(-c6cnc7[nH]cc(-c8ccc(C(=O)N(C)C)cc8)c7n6)cc5C)CC4)C3)C2)ccc1N1CCC(=O)NC1=O (stereo not drawn) [compound 017]
7,< 0.01,Cc1cc(N2CC(CN3CC=C(c4c(C)cc(-c5cnc6[nH]cc(-c7ccc(C(=O)N(C)C)cc7)c6n5)cc4C)CC3)C2)ccc1NC1CCC(=O)NC1=O (stereo not drawn) [compound 021]
8,< 0.01,Cc1cc(N2CC3(CC(N4CC=C(c5c(C)cc(-c6cnc7[nH]cc(-c8ccc(C(=O)N(C)C)cc8)c7n6)cc5C)CC4)C3)C2)ccc1N1CCC(=O)NC1=O [compound 034]
9,< 0.01,COc1ccc(N2CCC(C)(CN3CC=C(c4c(C)cc(-c5cnc6[nH]cc(-c7ccc(C(=O)N(C)C)cc7)c6n5)cc4C)CC3)C2)cc1N1CCC(=O)NC1=O (stereo not drawn) [compound 035]
10,< 0.01,Cc1cc(-c2cnc3[nH]cc(-c4ccc(C(=O)N(C)C)cc4)c3n2)cc(C)c1C1=CCN(CC2CC2Nc2ccc(C(=O)NC3CCC(=O)NC3=O)cc2)CC1 (stereo not drawn) [compound 036]
11,< 0.01,Cc1cc(-c2cnc3[nH]cc(-c4ccc(C(=O)N(C)C)cc4)c3n2)cc(C)c1C1=CCN(C2CC(C(=O)c3ccc(F)c(N4CCC(=O)NC4=O)c3)C2)CC1 (stereo not drawn) [compound 037]
12,< 0.01,Cc1cc(-c2cnc3[nH]cc(-c4ccc(C(=O)N(C)C)cc4)c3n2)cc(C)c1C1=CCN(C2CN(Cc3ccc(F)c(N4CCC(=O)NC4=O)c3)C2)CC1 [compound 038]
13,< 0.01,Cc1cc(NCC2(CN3CC=C(c4c(C)cc(-c5cnc6[nH]cc(-c7ccc(C(=O)N(C)C)cc7)c6n5)cc4C)CC3)CC2)ccc1N1CCC(=O)NC1=O [compound 040]
